Source: the supplement of paper PMC8967900

Columns and labels:
Experiment in all cases: selective drug sensitivity score (sDSS, relative to normal bone marrow) (sDSS (score)); higher = more potent and effective on the cell line relative to normal bone marrow cells
Details in all cases: 72 h
NALM-6 = system: NALM-6
ALL-PO = system: ALL-PO
REH = system: REH
MHH-CALL-4 = system: MHH-CALL-4
COG-LL-394h = system: COG-LL-394h
COG-LL-317 = system: COG-LL-317
HPB-ALL = system: HPB-ALL
RCH-ACV = system: RCH-ACV
KASUMI-2 = system: KASUMI-2
LC4-1 = system: LC4-1
KASUMI-10 = system: KASUMI-10
TANOUE = system: TANOUE
MHH-CALL-2 = system: MHH-CALL-2
380 = system: 380
SEM cells = system: SEM cells
COG-LL-319h = system: COG-LL-319h
CCRF-CEM = system: CCRF-CEM
DND-41 = system: DND-41
RPMI-8402 = system: RPMI-8402
SUP-B15 = system: SUP-B15
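Further: ALL cell lines in 384-well plates, five doses spanning 10,000-fold, each plate scaled between vehicle and 100 µmol/L benzalkonium chloride controls, sDSS an adapted area-under-curve metric.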

Row | Compound | selective drug sensitivity score (NALM-6) | selective drug sensitivity score (ALL-PO) | selective drug sensitivity score (REH) | selective drug sensitivity score (MHH-CALL-4) | selective drug sensitivity score (COG-LL-394h) | selective drug sensitivity score (COG-LL-317) | selective drug sensitivity score (HPB-ALL) | selective drug sensitivity score (RCH-ACV) | selective drug sensitivity score (KASUMI-2) | selective drug sensitivity score (LC4-1) | selective drug sensitivity score (KASUMI-10) | selective drug sensitivity score (TANOUE) | selective drug sensitivity score (MHH-CALL-2) | selective drug sensitivity score 380 | selective drug sensitivity score (SEM cells) | selective drug sensitivity score (COG-LL-319h) | selective drug sensitivity score (CCRF-CEM) | selective drug sensitivity score (DND-41) | selective drug sensitivity score (RPMI-8402) | selective drug sensitivity score (SUP-B15)
1 | Cc1ccc(NC(=O)c2ccc(CN3CCN(C)CC3)cc2)cc1Nc1nc(-c2cccnc2)cs1 [Masitinib] (top concentration 10000 nM) | 0.32 | -1.28 | -0.98 | -4.38 | 3.32 | 3.32 | -4.18 | 0.02 | -4.38 | -2.18 | -3.48 | -4.38 | -1.68 | -4.38 | 0.22 | -3.88 | 2.42 | -0.28 | 1.82 | 7.52
2 | CCN(CC)CCCC(C)Nc1c2ccc(Cl)cc2nc2ccc(OC)cc12 (stereo not given) [Mepacrine] (top concentration 50000 nM) | -5.5 | 0.2 | -3.3 | -8.4 | -5.7 | -0.5 | -6.8 | -4.5 | -9.5 | -4 | 0.6 | -10.8 | -5.6 | -1.7 | -0.1 | -2.9 | -5 | -5.1 | -7.1 | -1.1
3 | COc1ccc(-c2ccc3ncc4c(c3c2)n(-c2ccc(N3CCNCC3)c(C(F)(F)F)c2)c(=O)n4C)cn1 [NVP-BGT226] (top concentration 1000 nM) | 4.32 | 6.72 | 8.22 | 2.32 | -0.48 | 0.72 | -0.18 | 20.1 | 7.92 | 2.22 | -0.18 | -3.58 | 3.92 | 12.2 | 6.82 | 0.72 | 10.1 | 2.12 | 4.42 | 10.2
4 | COc1nc(N)nc2c1ncn2[C@@H]1O[C@H](CO)[C@@H](O)[C@@H]1O [Nelarabine] (top concentration 10000 nM) | -4.82 | 0.08 | -6.32 | -3.12 | -9.72 | 4.58 | -2.22 | 1.98 | -10.2 | -7.22 | -5.82 | -10.2 | -4.22 | -6.32 | -10.2 | 4.78 | 4.18 | 8.98 | 2.68 | 5.78
5 | Cc1cn(-c2cc(NC(=O)c3ccc(C)c(Nc4nccc(-c5cccnc5)n4)c3)cc(C(F)(F)F)c2)cn1 [Nilotinib] (top concentration 10000 nM) | 0 | 4.6 | 2.5 | 2 | 0.7 | 0 | 0 | 8.3 | 4.1 | 9.1 | 0 | 0 | 8.9 | 6.1 | 4.9 | 8.2 | 2.1 | 2.8 | 1.8 | 31.6
6 | NC(=O)c1cccc2cn(-c3ccc(C4CCCNC4)cc3)nc12 (stereo not given) [Niraparib] (top concentration 10000 nM) | 1.18 | 6.08 | -0.02 | 4.58 | -2.02 | 7.88 | -3.32 | 6.48 | 4.28 | 3.38 | 1.58 | -3.32 | 3.78 | 15.8 | 2.98 | 14.2 | 4.68 | 2.78 | 1.98 | 17.2
7 | COc1ccc(C[C@H](NC(=O)[C@H](C)NC(=O)CN2CCOCC2)C(=O)N[C@@H](Cc2ccccc2)C(=O)[C@@]2(C)CO2)cc1 [ONX-0914] (top concentration 10000 nM) | -1.7 | -3.9 | -1.6 | 2.9 | 6.2 | 4.7 | -2.4 | -4.4 | 0.6 | -1.2 | 0.9 | -4.2 | 0.5 | 5.5 | 7.2 | -0.8 | 3.1 | 11.7 | -3.1 | 11.5
8 | CC(=O)c1cnc2ccc(-c3cc(Cl)c(O)c(Cl)c3)nc2c1N[C@H]1CC[C@H](CN(C)C)CC1 [OTS167] (top concentration 1000 nM) | -1.52 | -2.12 | 2.18 | 2.58 | 4.08 | 3.58 | -0.42 | 8.28 | 4.58 | -3.42 | 5.88 | -12.1 | 3.18 | 9.38 | 0.58 | 6.58 | 2.48 | -1.12 | 0.28 | 2.98
9 | COC(=O)C[C@](O)(CCCC(C)(C)O)C(=O)O[C@@H]1C(OC)=C[C@]23CCCN2CCc2cc4c(cc2[C@H]13)OCO4 [Omacetaxine] (top concentration 10000 nM) | 4.52 | -3.38 | -1.08 | 3.52 | 13 | 7.12 | -4.48 | 7.22 | 10.8 | 1.52 | 4.82 | -14.8 | 3.82 | 14.1 | 4.22 | 4.12 | 3.02 | -2.78 | 3.92 | 7.82
10 | C1=N/C2=N/c3ccc(OCCN4CCCC4)c(c3)COC/C=C/COCc3cccc(c3)C(=C1)N2 [Pacritinib] (top concentration 10000 nM) | -2.3 | -0.4 | -3.2 | -5.3 | -4 | -8.3 | -5.7 | 9.2 | -2.3 | -5.6 | 2.2 | -8.4 | -7.9 | -8.7 | 1.5 | 0 | -6.1 | -4.7 | -5.7 | -3.7
11 | Cc1[nH]c2ccccc2c1CCNCc1ccc(/C=C/C(=O)NO)cc1 [Panobinostat] (top concentration 1000 nM) | 4.14 | 6.14 | 0.44 | 4.94 | 2.84 | 6.34 | 10.1 | 14.1 | 14.3 | 5.84 | 7.74 | -6.56 | 8.44 | 12.1 | 3.94 | 14.2 | 5.34 | 5.04 | 4.14 | 10.2
12 | Cc1ccc(Nc2nccc(N(C)c3ccc4c(C)n(C)nc4c3)n2)cc1S(N)(=O)=O [Pazopanib] (top concentration 10000 nM) | -1.26 | -1.06 | 4.14 | -1.26 | -0.76 | -1.26 | 0.64 | 10.5 | 3.44 | 5.24 | 2.24 | -1.26 | 6.24 | -0.86 | 4.54 | 0.74 | 0.04 | 0.04 | 2.44 | -0.96
13 | Nc1nc2[nH]cc(CCc3ccc(C(=O)N[C@@H](CCC(=O)O)C(=O)O)cc3)c2c(=O)[nH]1 [Pemetrexed] (top concentration 10000 nM) | 24.5 | 30.9 | 22.1 | 15.2 | 1.58 | 25.1 | 9.98 | 28.8 | 19.3 | 21 | 19.1 | -0.72 | 18.7 | 22.6 | 25.6 | 27.3 | 23.6 | 18.6 | 24.8 | 28
14 | Cc1ccc(C(=O)Nc2ccc(CN3CCN(C)CC3)c(C(F)(F)F)c2)cc1C#Cc1cnc2cccnn12 [Ponatinib] (top concentration 1000 nM) | 0.82 | 14.1 | 2.62 | 4.72 | 1.12 | -1.98 | -2.18 | 14.8 | -1.78 | 0.32 | 16 | -3.78 | 5.92 | 9.52 | 19.4 | 10.3 | 1.82 | 1.42 | 2.72 | 31.8
15 | C[C@]12C=CC(=O)C=C1CC[C@@H]1[C@@H]2[C@@H](O)C[C@@]2(C)[C@H]1CC[C@]2(O)C(=O)CO [Prednisolone] (top concentration 10000 nM) | 15.9 | 28.9 | -3 | 25.5 | -3 | 2.6 | 2.2 | 26.8 | 13.5 | 8.4 | -3 | -2.8 | 23.1 | 23.8 | 2.9 | 16.2 | 6.4 | 29.4 | -1.3 | 28.1
16 | CC(C)(C)c1cc(NC(=O)Nc2ccc(-c3cn4c(n3)sc3cc(OCCN5CCOCC5)ccc34)cc2)no1 [Quizartinib] (top concentration 1000 nM) | 1.38 | 14.1 | -1.52 | -1.52 | -0.32 | -0.02 | 5.18 | 2.08 | -1.52 | 4.78 | 17.8 | -1.52 | 2.38 | -1.52 | 20.7 | 5.48 | 0.98 | 5.38 | 1.18 | 0.38
17 | Nc1cc(F)ccc1NC(=O)/C=C/c1cnn(C/C=C/c2ccccc2)c1 [RGFP966] (top concentration 10000 nM) | 13.3 | 3.64 | 17.1 | 2.94 | 2.34 | 16.6 | 11 | 14.8 | 8.24 | 12.2 | 9.44 | -0.26 | 7.84 | 12.9 | 18.7 | 17.5 | 13.9 | 6.84 | 10.5 | 18
